What all share (test): sunitinib treatment, viability of NSCLC cell line (IC50)
One test concerns H322C.
For another test, the system named is H157. Type of test: cell-based.
The next test concerns A549. It is filed as cell-based.
A further test deals with H358. It is filed as cell-based.
The test system of a further test is H1703. Type of test: cell-based.
In the next test the test system is H520. It is filed as cell-based.

The structures appear in SMILES notation.

For `CCN(CC)CCNC(=O)c1c(C)[nH]c(/C=C2\C(=O)Nc3ccc(F)cc32)c1C` [sunitinib, N-[2-(diethylamino)ethyl]-5-[(Z)-(5-fluoro-1,2-dihydro-2-oxo-3H-indol-3-ylidine)methyl]-2,4-dimethyl-1H-pyrrole-3-carboxamide], the 50% inhibitory concentration (IC50) (commonly the concentration that inhibits the measured activity by half) with H322C is 9 to 10 µM; in the test with H157 (Homo sapiens, NCI-H157, H157 cell line, sunitinib), > 10 µM; in the test on A549 (Homo sapiens, A549 cell line, sunitinib), > 10 µM; in the test on H358 (Homo sapiens, NCI-H358, H358 cell line, sunitinib), > 10 µM; in the test on H1703 (Homo sapiens, NCI-H1703, H1703 cell line, sunitinib), < 0.5 µM; in the test on H520 (Homo sapiens, NCI-H520, H520 cell line, sunitinib) it was 1 to 3 µM. In addition, the “sensitivity of cell line to sunitinib” value with H322C (untransfected H322C) was “resistant (sunitinib resistant (defined solely for the purposes of this example as having IC50>9 μM))”; in the test with H157 (untransfected H157) it was “resistant (sunitinib resistant (defined solely for the purposes of this example as having IC50>9 μM))”; in the test on A549 (untransfected A549), “resistant (sunitinib resistant (defined solely for the purposes of this example as having IC50>9 μM))”; in the test on H358 (untransfected H358) it was “resistant (sunitinib resistant (defined solely for the purposes of this example as having IC50>9 μM))”; in the test on H1703 (untransfected H1703), “sensitive (sunitinib sensitive (defined solely for the purposes of this example as having an IC50<3 μM))”; in the test on H520 (untransfected H520), “sensitive (sunitinib sensitive (defined solely for the purposes of this example as having an IC50<3 μM))”.

For the origin of these results see patent publication US20110124700A1, “SYSTEMS AND METHODS OF CANCER STAGING AND TREATMENT” (priority 2008, published 2011).
